# Measurements reported in the NIST ThermoML archive (doi:10.1016/j.fluid.2010.10.008).
# Numbers after ± are expanded uncertainties.
# Experiment: activity coefficient (dimensionless); of the first substance listed, at infinite dilution; xn = mol fraction of the nth substance listed
# Details: Liquid, Chromatography, x1 = 0
Structure (SMILES),activity coefficient (318.15 K),activity coefficient (323.15 K),activity coefficient (333.15 K),activity coefficient (343.15 K),activity coefficient (353.15 K)
C=CCCCCCC [oct-1-ene] + CCn1cc[n+](C)c1.CS(=O)(=O)[O-],374 ± 26,356 ± 24,325 ± 22,300 ± 21,277 ± 19
C1CCCCC1 [cyclohexane] + CCn1cc[n+](C)c1.CS(=O)(=O)[O-],123 ± 13,115 ± 12,103 ± 11,93.2 ± 9.8,84.3 ± 8.9
ClC(Cl)Cl [trichloromethane] + CCn1cc[n+](C)c1.CS(=O)(=O)[O-],0.488 ± 0.037,0.515 ± 0.038,0.572 ± 0.041,0.633 ± 0.044,0.694 ± 0.047
COC(=O)OC [dimethyl carbonate] + CCn1cc[n+](C)c1.CS(=O)(=O)[O-],3.18 ± 0.22,3.17 ± 0.22,3.16 ± 0.22,3.15 ± 0.21,3.14 ± 0.21
"COCCOC [1,2-dimethoxyethane] + CCn1cc[n+](C)c1.CS(=O)(=O)[O-]",5.58 ± 0.38,5.62 ± 0.38,5.69 ± 0.39,5.75 ± 0.39,5.8 ± 0.4
"Cc1cccc(C)c1 [1,3-dimethylbenzene] + CCn1cc[n+](C)c1.CS(=O)(=O)[O-]",20.8 ± 2.2,20.5 ± 2.2,19.9 ± 2.1,19.3 ± 2,18.8 ± 2
CC1CCCCC1 [methylcyclohexane] + CCn1cc[n+](C)c1.CS(=O)(=O)[O-],211 ± 22,198 ± 21,177 ± 19,160 ± 17,147 ± 16
ClC(Cl)(Cl)Cl [tetrachloromethane] + CCn1cc[n+](C)c1.CS(=O)(=O)[O-],4.93 ± 0.34,5.08 ± 0.35,5.36 ± 0.37,5.62 ± 0.38,5.87 ± 0.4
CC(C)=O [acetone] + CCn1cc[n+](C)c1.CS(=O)(=O)[O-],2.46 ± 0.17,2.47 ± 0.17,2.47 ± 0.17,2.48 ± 0.17,2.49 ± 0.17
CCOC(C)=O [ethyl acetate] + CCn1cc[n+](C)c1.CS(=O)(=O)[O-],7.32 ± 0.5,7.29 ± 0.5,7.22 ± 0.49,7.17 ± 0.49,7.12 ± 0.49
Cc1ccccc1 [toluene] + CCn1cc[n+](C)c1.CS(=O)(=O)[O-],9.41 ± 0.99,9.37 ± 0.99,9.23 ± 0.97,9.12 ± 0.96,9 ± 0.95
CCC1CCCCC1 [ethylcyclohexane] + CCn1cc[n+](C)c1.CS(=O)(=O)[O-],344 ± 36,326 ± 34,291 ± 31,262 ± 28,237 ± 25
C[N+](=O)[O-] [nitromethane] + CCn1cc[n+](C)c1.CS(=O)(=O)[O-],0.612 ± 0.043,0.621 ± 0.043,0.638 ± 0.044,0.653 ± 0.045,0.668 ± 0.045
CC(C)O [propan-2-ol] + CCn1cc[n+](C)c1.CS(=O)(=O)[O-],0.974 ± 0.061,0.958 ± 0.06,0.933 ± 0.059,0.913 ± 0.058,0.9 ± 0.057
ClCCl [dichloromethane] + CCn1cc[n+](C)c1.CS(=O)(=O)[O-],0.7 ± 0.047,0.727 ± 0.048,0.78 ± 0.051,0.833 ± 0.054,0.887 ± 0.056
C1CCOC1 [tetrahydrofuran] + CCn1cc[n+](C)c1.CS(=O)(=O)[O-],5.37 ± 0.37,5.33 ± 0.36,5.24 ± 0.36,5.18 ± 0.35,5.1 ± 0.35
CCC(C)=O [butanone] + CCn1cc[n+](C)c1.CS(=O)(=O)[O-],4.48 ± 0.31,4.46 ± 0.3,4.48 ± 0.31,4.41 ± 0.3,4.38 ± 0.3
CO [methanol] + CCn1cc[n+](C)c1.CS(=O)(=O)[O-],0.238 ± 0.029,0.239 ± 0.029,0.242 ± 0.03,0.244 ± 0.03,0.247 ± 0.03
CCc1ccccc1 [ethylbenzene] + CCn1cc[n+](C)c1.CS(=O)(=O)[O-],19.1 ± 2,18.8 ± 2,18.3 ± 1.9,17.8 ± 1.9,17.3 ± 1.8
CC(C)OC(C)C [diisopropyl ether] + CCn1cc[n+](C)c1.CS(=O)(=O)[O-],127 ± 26,122 ± 25,114 ± 23,107 ± 22,101 ± 20
COC(C)(C)C [2-methoxy-2-methylpropane] + CCn1cc[n+](C)c1.CS(=O)(=O)[O-],34.6 ± 2.4,33.8 ± 2.3,32.6 ± 2.2,31.8 ± 2.2,30.9 ± 2.1
CCCCCCCC [octane] + CCn1cc[n+](C)c1.CS(=O)(=O)[O-],1020 ± 110,949 ± 100,839 ± 89,752 ± 79,676 ± 71
c1ccsc1 [thiophene] + CCn1cc[n+](C)c1.CS(=O)(=O)[O-],2.04 ± 0.14,2.06 ± 0.14,2.11 ± 0.14,2.16 ± 0.15,2.2 ± 0.15
CCCO [propan-1-ol] + CCn1cc[n+](C)c1.CS(=O)(=O)[O-],0.801 ± 0.052,0.789 ± 0.051,0.771 ± 0.05,0.754 ± 0.05,0.742 ± 0.049
"FC(F)(F)C(Cl)Br (stereo not given) [1-bromo-1-chloro-2,2,2-trifluoroethane] + CCn1cc[n+](C)c1.CS(=O)(=O)[O-]",0.586 ± 0.042,0.632 ± 0.044,0.739 ± 0.049,0.843 ± 0.054,0.96 ± 0.06
CC#N [acetonitrile] + CCn1cc[n+](C)c1.CS(=O)(=O)[O-],0.862 ± 0.055,0.873 ± 0.056,0.887 ± 0.056,0.9 ± 0.057,0.912 ± 0.058
CCCCCCC [heptane] + CCn1cc[n+](C)c1.CS(=O)(=O)[O-],637 ± 130,596 ± 120,523 ± 110,471 ± 96,422 ± 86
COC(C)=O [methyl ethanoate] + CCn1cc[n+](C)c1.CS(=O)(=O)[O-],3.59 ± 0.24,3.6 ± 0.25,3.61 ± 0.25,3.63 ± 0.25,3.66 ± 0.25
CCO [ethanol] + CCn1cc[n+](C)c1.CS(=O)(=O)[O-],0.513 ± 0.038,0.509 ± 0.038,0.501 ± 0.038,0.496 ± 0.038,0.493 ± 0.038
c1ccccc1 [benzene] + CCn1cc[n+](C)c1.CS(=O)(=O)[O-],4.51 ± 0.47,4.5 ± 0.47,4.48 ± 0.47,4.48 ± 0.47,4.46 ± 0.47
